Reference: patent US6548553B2, “Styryl sulfone anticancer agents” (Temple University-of the Commonwealth System of Higher …, priority 1997, dated 2003)

Target: T1, ERK-2 (Homo sapiens, UniProt P28482)
T1 construct: ERK-2 in 100 mg of cell lysate was immunoprecipitated; endogenous in cells; host or cells: LnCaP, MCF-7 (human) and NIH3T3 (mouse) cells
Experiment: Immune complex ERK-2 kinase assay with MBP substrate, treated cells
Type: cell-based
Set-up: dose or concentration left out as unconfirmed
Details: prostate tumor cells
Description: To examine the effects of FRI-20 on the MAPK pathway, NIH3T3, LnCaP and MCF-7 cells were incubated with FRI-20 at a concentration […] for 48 hours. Following incubation of cells in the presence and absence of FRI-20, the cells were lysed using ERK lysis buffer containing 20 mM HEPES (pH 7.4), 50 mM β-glycerophosphate, 0.5% Triton X-100, 2 mM MgCl2, 1 mM EGTA, 1 mM dithiothreitol, 2 μg/ml leupeptin, 2 μg/ml aprotinin, 100 μM phenylmethylsulfonyl fluoride, and 1 mM benzamidine. ERK-2 in […] of cell lysate was immunoprecipitated by incubating lysate protein with […] of ERK-2 polyclonal antibody (antibody sc-154 to ERK2 is from Santa Cruz Biotechnology, Inc.) for one hour followed by an additional incubation of 20 μl of protein A-Sepharose (Pharmacia) for one hour. The immune complex-bound protein A-Sepharose beads were washed twice with lysis buffer and twice with
ERK/MAPK buffer containing 20 mM HEPES (pH 7.4), 50 mM β-glycerophosphate, 10 mM MgCl2, 1 mM EGTA, 1 mM dithiothreitol, and […] Na3VO4.
The immunoprecipitates were then tested for MAP kinase activity by an in vitro assay which utilizes myelin basic proteins (MBP) as a substrate for ERK-2 in the presence of [γ-^32P] ATP. Accordingly, the beads were resuspended in 40 μl of MAPK buffer containing 100 μM [γ-^32P] […]

T1 sequence (P28482 2-360): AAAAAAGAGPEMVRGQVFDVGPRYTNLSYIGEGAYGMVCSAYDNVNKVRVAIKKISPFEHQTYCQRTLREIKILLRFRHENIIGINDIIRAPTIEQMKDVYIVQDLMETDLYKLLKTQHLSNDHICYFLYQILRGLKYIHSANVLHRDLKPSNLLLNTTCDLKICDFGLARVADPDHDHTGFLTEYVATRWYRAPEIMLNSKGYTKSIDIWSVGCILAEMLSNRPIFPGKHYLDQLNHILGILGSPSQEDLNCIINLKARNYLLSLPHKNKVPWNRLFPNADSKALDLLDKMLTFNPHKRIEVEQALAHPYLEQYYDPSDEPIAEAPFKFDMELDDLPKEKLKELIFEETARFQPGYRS

O=S(=O)(/C=C/c1ccc(F)cc1)Cc1ccc(Cl)cc1 [Example 11, E-4-fluorostyryl 4-chlorobenzyl Sulfone]
reduction of phosphorylation status of MBP compared to mock-treated cells: more than 80%
